For 32 compounds, IC50 results are on record in patent US20250214976A1, “GPR35 MODULATORS AND USES THEREOF” (Crossignal Therapeutics, Inc., priority 2022, published 2025).

Where only a bound is given, the exact number is not on record here.

T1 sequence (Q9HC97 whole entry): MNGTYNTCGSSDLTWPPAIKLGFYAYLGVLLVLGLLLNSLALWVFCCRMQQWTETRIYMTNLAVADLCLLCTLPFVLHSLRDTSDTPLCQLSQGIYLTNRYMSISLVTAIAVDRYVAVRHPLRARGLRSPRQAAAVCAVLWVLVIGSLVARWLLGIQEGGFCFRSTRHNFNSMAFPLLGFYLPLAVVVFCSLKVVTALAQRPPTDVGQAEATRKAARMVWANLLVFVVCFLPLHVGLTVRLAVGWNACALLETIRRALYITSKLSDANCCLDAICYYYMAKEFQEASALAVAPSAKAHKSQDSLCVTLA

This assay addresses T1, human GPR35 (Homo sapiens, UniProt Q9HC97).
T1 construct: expressed in transfected cells; host or cells: HEK293
The assay can be described thus: Luciferase Reporter Assay (YAP responsive element) in HEK293 cells stably transfected with human GPR35. Format: cell-based. The conditions noted are these: overnight incubation. On the procedure: HEK293 cells stably transfected with human GPR35 were maintained in Dulbecco's Modified Eagle Medium (DMEM) supplemented with 10% FBS and 300 μg/mL Zeocin and 200 μg/mL Hygromycin at 37° C., 10% CO2. On Day 1, cells were plated in poly-D-lysine coated 96-well tissue culture plate in regular growth medium (DMEM/10% FBS/300 μg/mL Zeocin/200 μg/mL Hygromycin. On the next day, luciferase reporter plasmid DNA with YAP responsive element was transfected into cells using lipofectamine 2000 (Invitrogen) following manufacture's protocol. After transfection for 6 hr., cells were treated with testing compounds in fasting DMEM medium (phenol red free, FBS free) at varying compound concentrations ranging from 10 μM to […] in a 3-fold serial diluted fashion. After an overnight incubation, the luciferase activities were measured with SteadyLite Plus Kit (PerkinElmer) according to manufacturer's protocol. IC50 was determined by fitting the dose-response data to a four-parameter logistic curve using GraphPad Prism.
The symbol “+” indicates IC50 is greater than […]. “++” indicates IC50>100 nM but ≤[…]. “+++” indicates IC50≤100 nM.
As usually defined, the IC50 is the concentration that gives 50% inhibition. For `O=C(Nc1ccc(OCc2ccc(F)cc2Cl)cc1)c1coc2cc(Oc3nnn[nH]3)ccc12` [Compound 1-29, 6-((1H-tetrazol-5-yl)oxy)-N-(4-((2-chloro-4-fluorobenzyl)oxy)phenyl)benzofuran-3-carboxamide], the IC50 was greater than 1000 nM. `O=C(Nc1ccc(OCc2cc(Cl)c(Cl)s2)cc1)c1coc2cc(-c3nnn[nH]3)c(F)cc12` [Compound 1-57, N-(4-((4,5-dichlorothiophen-2-yl)methoxy)phenyl)-5-fluoro-6-(1H-tetrazol-5-yl)benzofuran-3-carboxamide] returned an IC50 of 100 to 1000 nM. In the case of `O=C(Nc1ccc(C2CCCC2)c(F)c1)c1csc2cc(-c3nnn[nH]3)ccc12` [Compound 1-58, N-(4-cyclopentyl-3-fluorophenyl)-6-(1H-tetrazol-5-yl)benzo[b]thiophene-3-carboxamide], the IC50 is no more than 100 nM. Under `O=C(Nc1ccc(OCc2ccc(F)cc2Cl)c(F)c1)c1coc2c(-c3nnn[nH]3)cccc12` [Compound 1-11, N-(4-((2-chloro-4-fluorobenzyl)oxy)-3-fluorophenyl)-7-(1H-tetrazol-5-yl)benzofuran-3-carboxamide] stands greater than 1000 nM; under `O=C(Nc1ccc(OCc2ccc(F)cc2Cl)cc1)c1coc2cc(Oc3nnn[nH]3)c(F)cc12` [Compound 1-39, 6-((1H-tetrazol-5-yl)oxy)-N-(4-((2-chloro-4-fluorobenzyl)oxy)phenyl)-5-fluorobenzofuran-3-carboxamide], 100 to 1000 nM. `N#Cc1ccc(COc2ccc(NC(=O)c3coc4cc(-c5nnn[nH]5)c(F)cc34)cc2)c(Cl)c1` [Compound 1-46, N-(4-((2-chloro-4-cyanobenzyl)oxy)phenyl)-5-fluoro-6-(1H-tetrazol-5-yl)benzofuran-3-carboxamide] displayed an IC50 of 100 to 1000 nM. The same measure for `C[C@H](Oc1ccc(NC(=O)c2coc3cc(-c4nnn[nH]4)c(F)cc23)cc1)c1ccc(F)cc1Cl` (single isomer, unassigned) [Compound 1-25]: greater than 1000 nM; for `O=C(Nc1ccc(OCc2ccc(F)cc2Cl)cc1)c1coc2cc(-c3nnn[nH]3)c(F)cc12` [Compound 1-18, N-(4-((2-chloro-4-fluorobenzyl)oxy)phenyl)-5-fluoro-6-(1H-tetrazol-5-yl)benzofuran-3-carboxamide]: no more than 100 nM. Under `O=C(Nc1ccc(OCc2ccc(Cl)c(F)c2)cc1)c1coc2cc(-c3nnn[nH]3)c(F)cc12` [Compound 1-49, N-(4-((4-chloro-3-fluorobenzyl)oxy)phenyl)-5-fluoro-6-(1H-tetrazol-5-yl)benzofuran-3-carboxamide] stands no more than 100 nM; under `O=C(Nc1ccc(Oc2ccc(F)cc2Cl)cc1)c1coc2cc(-c3nnn[nH]3)c(F)cc12` [Compound 1-40, N-(4-(2-chloro-4-fluorophenoxy)phenyl)-5-fluoro-6-(1H-tetrazol-5-yl)benzofuran-3-carboxamide], 100 to 1000 nM; under `O=C(Nc1ccc(C2CCCC2)c(F)c1)c1coc2cc(-c3nnn[nH]3)c(F)cc12` [Compound 1-17, N-(4-cyclopentyl-3-fluorophenyl)-5-fluoro-6-(1H-tetrazol-5-yl)benzofuran-3-carboxamide], no more than 100 nM. Under `O=C(Nc1ccc(OCc2c(F)cc(Cl)cc2F)cc1)c1coc2cc(-c3nnn[nH]3)c(F)cc12` [Compound 1-54, N-(4-((4-chloro-2,6-difluorobenzyl)oxy)phenyl)-5-fluoro-6-(1H-tetrazol-5-yl)benzofuran-3-carboxamide] stands 100 to 1000 nM; under `O=C(Nc1ccc(O[C@H]2CCOC2)c(F)c1)c1coc2cc(-c3nnn[nH]3)c(F)cc12` [Compound 1-21, (S)-5-fluoro-N-(3-fluoro-4-((tetrahydrofuran-3-yl)oxy)phenyl)-6-(1H-tetrazol-5-yl)benzofuran-3-carboxamide], 100 to 1000 nM; under `O=C(Nc1ccc(OCc2ccc(Cl)cc2Cl)cc1)c1coc2cc(-c3nnn[nH]3)c(F)cc12` [Compound 1-19, N-(4-((2,4-dichlorobenzyl)oxy)phenyl)-5-fluoro-6-(1H-tetrazol-5-yl)benzofuran-3-carboxamide], 100 to 1000 nM. For `O=C(Nc1ccc(OCc2cc(F)cc(Cl)c2)cc1)c1coc2cc(-c3nnn[nH]3)c(F)cc12` [Compound 1-45, N-(4-((3-chloro-5-fluorobenzyl)oxy)phenyl)-5-fluoro-6-(1H-tetrazol-5-yl)benzofuran-3-carboxamide], the IC50 fell in the range of 100 to 1000 nM.

`C[C@H](Oc1ccc(NC(=O)c2coc3cc(-c4nnn[nH]4)c(F)cc23)cc1F)C(F)(F)F` (single isomer, unassigned) [Compound 1-30] showed an IC50 of no more than 100 nM. The same measure for `O=C(Nc1ccc(OCc2ccc(F)cc2Cl)cc1)c1coc2cc(-c3nnn[nH]3)ccc12` [Compound 1-13, N-(4-((2-chloro-4-fluorobenzyl)oxy)phenyl)-6-(1H-tetrazol-5-yl)benzofuran-3-carboxamide]: no more than 100 nM; for `O=C(Nc1ccc(N2CCC(F)(F)C2)c(F)c1)c1coc2cc(-c3nnn[nH]3)c(F)cc12` [Compound 1-34, N-(4-(3,3-difluoropyrrolidin-1-yl)-3-fluorophenyl)-5-fluoro-6-(1H-tetrazol-5-yl)benzofuran-3-carboxamide]: no more than 100 nM; for `O=C(Nc1ccc(OCc2ccc(F)cc2Cl)cc1)c1coc2cc(-c3noc(=O)[nH]3)c(F)cc12` [Compound 1-24, N-(4-((2-chloro-4-fluorobenzyl)oxy)phenyl)-5-fluoro-6-(5-oxo-4,5-dihydro-1,2,4-oxadiazol-3-yl)benzofuran-3-carboxamide]: no more than 100 nM. Consider `O=C(Nc1ccc(OC2CCCC2)c(F)c1)c1coc2c(-c3nnn[nH]3)cccc12` [Compound 1-7, N-(4-(cyclopentyloxy)-3-fluorophenyl)-7-(1H-tetrazol-5-yl)benzofuran-3-carboxamide], for which the IC50 was greater than 1000 nM. In turn, `O=C(Nc1ccc(O[C@H]2CCC(F)(F)C2)c(F)c1)c1coc2cc(-c3nnn[nH]3)c(F)cc12` (single isomer, unassigned) [Compound 1-36] yielded an IC50 of no more than 100 nM. In the case of `O=C(Nc1ccc(N2CCC[C@@H]2C(F)(F)F)c(F)c1)c1coc2cc(-c3nnn[nH]3)c(F)cc12` [Compound 1-33, (R)-5-fluoro-N-(3-fluoro-4-(2-(trifluoromethyl)pyrrolidin-1-yl)phenyl)-6-(1H-tetrazol-5-yl)benzofuran-3-carboxamide], the IC50 lay in the range of 100 to 1000 nM.

Take `O=C(Nc1cc(F)c(OC2CCCC2)cc1F)c1coc2cc(-c3nnn[nH]3)ccc12` [Compound 1-10, N-(4-(cyclopentyloxy)-2,5-difluorophenyl)-6-(1H-tetrazol-5-yl)benzofuran-3-carboxamide]: the half-inhibitory concentration (IC50) is no more than 100 nM. In turn, `O=C(Nc1ccc(OCc2cc(F)c(F)cc2Cl)cc1)c1coc2cc(-c3nnn[nH]3)c(F)cc12` [Compound 1-50, N-(4-((2-chloro-4,5-difluorobenzyl)oxy)phenyl)-5-fluoro-6-(1H-tetrazol-5-yl)benzofuran-3-carboxamide] returned an IC50 of 100 to 1000 nM. Under `N#Cc1cc(Cl)ccc1COc1ccc(NC(=O)c2coc3cc(-c4nnn[nH]4)c(F)cc23)cc1` [Compound 1-52, N-(4-((4-chloro-2-cyanobenzyl)oxy)phenyl)-5-fluoro-6-(1H-tetrazol-5-yl)benzofuran-3-carboxamide] stands 100 to 1000 nM. Under `O=C(Nc1ccc(OCc2ccc(F)c(Cl)c2)cc1)c1coc2cc(-c3nnn[nH]3)c(F)cc12` [Compound 1-43, N-(4-((3-chloro-4-fluorobenzyl)oxy)phenyl)-5-fluoro-6-(1H-tetrazol-5-yl)benzofuran-3-carboxamide] stands no more than 100 nM; under `O=C(Nc1ccc(N2CC3C(C2)C3(F)F)c(F)c1)c1coc2cc(-c3nnn[nH]3)c(F)cc12` (centres unmarked) [Compound 1-42, N-(4-(6,6-difluoro-3-azabicyclo[3.1.0]hexan-3-yl)-3-fluorophenyl)-5-fluoro-6-(1H-tetrazol-5-yl)benzofuran-3-carboxamide], 100 to 1000 nM; under `O=C(Nc1ccc(OC2CCCC2)c(F)c1)c1coc2cc(-c3nnn[nH]3)ccc12` [Compound 1-1, N-(4-(cyclopentyloxy)-3-fluorophenyl)-6-(1H-tetrazol-5-yl)benzofuran-3-carboxamide], no more than 100 nM. Consider `O=C(Nc1ccc(OC2CCC2)c(F)c1)c1coc2cc(OCc3nnn[nH]3)ccc12` [Compound 1-4, 6-((1H-tetrazol-5-yl)methoxy)-N-(4-cyclobutoxy-3-fluorophenyl)benzofuran-3-carboxamide], for which the IC50 is greater than 1000 nM. Under `O=C(Nc1ccc(OC(CF)CF)c(F)c1)c1coc2cc(-c3nnn[nH]3)c(F)cc12` [Compound 1-35, N-(4-((1,3-difluoropropan-2-yl)oxy)-3-fluorophenyl)-5-fluoro-6-(1H-tetrazol-5-yl)benzofuran-3-carboxamide] stands 100 to 1000 nM; under `O=C(Nc1ccc(OC2COC2)c(F)c1)c1coc2cc(-c3nnn[nH]3)c(F)cc12` [Compound 1-28, 5-fluoro-N-(3-fluoro-4-(oxetan-3-yloxy)phenyl)-6-(1H-tetrazol-5-yl)benzofuran-3-carboxamide], 100 to 1000 nM. The same measure for `O=C(Nc1ccc(OC2CCCC2)c(F)c1F)c1coc2cc(-c3nnn[nH]3)ccc12` [Compound 1-9, N-(4-(cyclopentyloxy)-2,3-difluorophenyl)-6-(1H-tetrazol-5-yl)benzofuran-3-carboxamide]: greater than 1000 nM.
